Holding throughout (assay): In vitro high-throughput screen of FDA-approved drug library (CellTiter-Glo)
Holding throughout (format): cell-based
(In general: In ATP-based viability assays light output follows the ATP content of the culture.)

The subject of one assay is Hs 919.T. The following applies: for inhibition at 1 µM: read-out: % Inhibition Hs 919.T. The procedure: (§1) We screened, in parallel to the three computational approaches, an FDA-approved drug library containing 2,316 drugs (1,536 unique chemical entities). […] The drug screening study protocol employed is summarized in Supplementary Table S1.
(§2) Cells were grown to 80–90% confluence, harvested and aliquoted into 384-well plates (black μClear microplates, Greiner bio-one, Germany) at concentrations of 750–1,500 cells per well in a total volume of 25 μl/well using a Matrix Wellmate (Thermo Scientific). Cells were cultured for 72 hours in a 5% CO2 atmosphere at 37°C. Aliquots of 25 μl CellTiter-Glo® Reagent (Promega) were added directly to each well, the plates were incubated at room temperature for 20 min and the luminescence signal was measured according to the manufacturer's protocol. The measurements were made using Infinite® M200 Pro plate reader (Tecan, Switzerland). […] Data were normalized to percentage inhibition. […]
(§3) (A) Color scale for drug inhibition values. […]

In a further assay the test system is A673. The following applies: for inhibition at 1 µM: Homo sapiens, read-out: % Inhibition A673. The procedure:
as §1, §2, §3

The next assay deals with SK-ES-1. The following applies: for inhibition at 1 µM: Homo sapiens, read-out: % Inhibition SK-ES-1. The procedure: as §1, §2, §3
A further assay relates to RD-ES. The following applies: for inhibition at 1 µM: RD-ES, read-out: % Inhibition RD-ES. The procedure:
as §1, §2, §3

Setting [1] is: 1 μmol/L drug, 72 hours, control cell line.
Where [2] appears, read: SK-ES1, 1 μmol/L drug, 72 hours.

The values below come from PMC5354814, “In silico and in vitro drug screening identifies new therapeutic approaches for Ewing sarcoma” (Oncotarget, 2016).

The structures appear in SMILES notation. Read-outs that look alike come from different tables or passages of the source. Bounds are passed on as bounds.

With `CN(Cc1cnc2nc(N)nc(N)c2n1)c1ccc(C(=O)N[C@@H](CCC(=O)O)C(=O)O)cc1` (racemic) [Methotrexate/Amethopterin (R,S), Methotrexate], the inhibition at 1 µM in the assay with Hs 919.T. (setting [1]) is less than 50%; in the assay with A673 (A673, 1 μmol/L drug, 72 hours), 89%; in the assay with SK-ES-1 (setting [2]), less than 50%; in the assay on RD-ES (1 μmol/L drug, 72 hours), 82%.

As to `COc1cc2c3cc1Oc1cc(ccc1O)C[C@@H]1c4c(cc(OC)c(O)c4Oc4ccc(cc4)C[C@@H]3N(C)CC2)CC[N+]1(C)C.Cl.O.O.O.O.O.[Cl-]` [(+)-Tubocurarine chloride], the “% Inhibition Hs 919.T.” value with Hs 919.T. (setting [1]) was less than 50%. For the same compound, the “% Inhibition A673” value in the assay with A673 (1 μmol/L drug, 72 hours) is on record as less than 50%. In the assay with SK-ES-1 (1 μmol/L drug, 72 hours), the “% Inhibition SK-ES-1” value is less than 50%. Further, the “% Inhibition RD-ES” value with RD-ES (1 μmol/L drug, 72 hours) turned out to be 51%.

Take `CCCCC/C=C\C/C=C\C/C=C\C/C=C\CCCC(=O)Nc1ccc(O)cc1` [AM 404]: the “% Inhibition Hs 919.T.” value in the assay on Hs 919.T. (setting [1]) is on record as less than 50%. Moreover, the “% Inhibition A673” value with A673 (1 μmol/L drug, 72 hours) is given as 65%. The “% Inhibition SK-ES-1” value in the assay with SK-ES-1 (1 μmol/L drug, 72 hours) was less than 50%. Besides, the “% Inhibition RD-ES” value in the assay on RD-ES (1 μmol/L drug, 72 hours) is reported as less than 50%.

With `CCCSc1ccc2nc(NC(=O)OC)[nH]c2c1` [Albendazole], the inhibition at 1 µM was less than 50% in the assay with Hs 919.T. (72 h); 89% in the assay with A673 (A673, 72 h); 93% in the assay with SK-ES-1 (SK-ES1, 72 h); 93% in the assay on RD-ES (72 h).

With `CCC(C)(C)c1ccc(CC(C)CN2C[C@@H](C)O[C@@H](C)C2)cc1` (stereo partly drawn) [Amorolfine], the inhibition at 1 µM in the assay with Hs 919.T. (setting [1]) is less than 50%; in the assay on A673 (A673, 1 μmol/L drug, 72 hours), 56%; with SK-ES-1 (setting [2]), less than 50%; in the assay on RD-ES (1 μmol/L drug, 72 hours) it was less than 50%.

As to `CCCCCC[C@H]1C(=O)O[C@H](C)[C@H](NC(=O)c2cccc(NC=O)c2O)C(=O)O[C@@H](C)[C@@H]1OC(=O)CC(C)C` [Antimycin A], the inhibition at 1 µM was less than 50% in the assay on Hs 919.T. (setting [1]); less than 50% with A673 (A673, 1 μmol/L drug, 72 hours); less than 50% in the assay with SK-ES-1 (setting [2]); 69% in the assay on RD-ES (1 μmol/L drug, 72 hours).

For the compound `C=C1[C@@H]2CC[C@H]3[C@]4(C)C[C@H](O[C@@H]5O[C@H](CO)[C@@H](OS(=O)(=O)[O-])[C@H](OS(=O)(=O)[O-])[C@H]5OC(=O)CC(C)C)C[C@@H](C(=O)O)[C@H]4CC[C@]3(C2)[C@H]1O.[K+].[K+]` [Atractyloside potassium salt], the “% Inhibition Hs 919.T.” value in the assay on Hs 919.T. (setting [1]) is less than 50%. Also, the “% Inhibition A673” value in the assay with A673 (1 μmol/L drug, 72 hours) is reported as 99%. Further, the “% Inhibition SK-ES-1” value in the assay with SK-ES-1 (1 μmol/L drug, 72 hours) amounted to 99%. Besides, the “% Inhibition RD-ES” value with RD-ES (1 μmol/L drug, 72 hours) worked out at 98%.

Regarding `Nc1nc(O)c2[nH]nnc2n1` [Azaguanine-8], in the assay on Hs 919.T. (setting [1]), the “% Inhibition Hs 919.T.” value is given as less than 50%. The “% Inhibition A673” value in the assay with A673 (1 μmol/L drug, 72 hours) turned out to be 83%. Further, the “% Inhibition SK-ES-1” value in the assay on SK-ES-1 (1 μmol/L drug, 72 hours) is less than 50%. Moreover, the “% Inhibition RD-ES” value in the assay on RD-ES (1 μmol/L drug, 72 hours) is reported as less than 50%.

For `Cn1cnc([N+](=O)[O-])c1Sc1ncnc2nc[nH]c12` [Azathioprine], the inhibition at 1 µM was less than 50% in the assay on Hs 919.T. (setting [1]); less than 50% with A673 (A673, 1 μmol/L drug, 72 hours); 52% in the assay with SK-ES-1 (setting [2]); less than 50% with RD-ES (1 μmol/L drug, 72 hours).

In the case of `CC[C@@]1(O)C(=O)OCc2c1cc1n(c2=O)Cc2cc3ccccc3nc2-1` [Camptothecine (S,+)], the “% Inhibition Hs 919.T.” value in the assay with Hs 919.T. (setting [1]) was less than 50%. The “% Inhibition A673” value with A673 (1 μmol/L drug, 72 hours) was 99%. The “% Inhibition SK-ES-1” value in the assay on SK-ES-1 (1 μmol/L drug, 72 hours) came out at 96%. In addition, the “% Inhibition RD-ES” value in the assay on RD-ES (1 μmol/L drug, 72 hours) came to 97%.

As to `Nc1nc(Cl)nc2c1ncn2[C@H]1C[C@H](O)[C@@H](CO)O1` [Cladribine], the inhibition at 1 µM in the assay with Hs 919.T. (setting [1]) was less than 50%; in the assay with A673 (A673, 1 μmol/L drug, 72 hours), 87%; in the assay with SK-ES-1 (setting [2]), 89%; with RD-ES (1 μmol/L drug, 72 hours) it was 99%.

Regarding `Nc1nc(Cl)nc2c1ncn2[C@@H]1O[C@H](CO)[C@@H](O)[C@@H]1F` [Clofarabine], the inhibition at 1 µM in the assay on Hs 919.T. (setting [1]) was less than 50%; with A673 (A673, 1 μmol/L drug, 72 hours), 93%; in the assay with SK-ES-1 (setting [2]) it was 98%; in the assay with RD-ES (1 μmol/L drug, 72 hours), 99%.

Turning to `N=c1ccn2c(n1)O[C@H]1[C@H](O)[C@@H](CO)O[C@H]12` [Cyclocytidine], the inhibition at 1 µM with Hs 919.T. (setting [1]) is less than 50%; with A673 (A673, 1 μmol/L drug, 72 hours), 86%; in the assay on SK-ES-1 (setting [2]), 98%; in the assay with RD-ES (1 μmol/L drug, 72 hours), 83%.

`C[C@@H]1C[C@@H]([C@H](O)CC2CC(=O)NC(=O)C2)C(=O)[C@@H](C)C1` [Cycloheximide]: the inhibition at 1 µM with Hs 919.T. (setting [1]) was less than 50%; with A673 (A673, 1 μmol/L drug, 72 hours), 77%; with SK-ES-1 (setting [2]), 81%; in the assay on RD-ES (1 μmol/L drug, 72 hours) it was 74%.

As to `Nc1ccn([C@@H]2O[C@H](CO)[C@@H](O)[C@@H]2O)c(=O)n1` [Cytosine β-D-arabinofuranoside], the “% Inhibition Hs 919.T.” value in the assay with Hs 919.T. (setting [1]) is reported as less than 50%. Also, the “% Inhibition A673” value in the assay on A673 (1 μmol/L drug, 72 hours) came to 84%. The “% Inhibition SK-ES-1” value in the assay on SK-ES-1 (1 μmol/L drug, 72 hours) is given as 98%. Besides, the “% Inhibition RD-ES” value with RD-ES (1 μmol/L drug, 72 hours) worked out at 93%.

For orientation: inhibition means how much of the control response was suppressed.
